ChEMBL document CHEMBL1629549, “Effects of minocycline and valproic acid coadministration on atazanavir plasma concentrations in human immunodeficiency virus-infected adults receiving atazanavir-ritonavir” (Antimicrob Agents Chemother, 2008)

Assays:
Type in all cases: ADME, organism-based
[1] = Half life in HIV-infected patient at 300 mg, qd; conditions: human, in vivo
[2] = Half life in HIV-infected patient at 300 mg, qd co-administered with 100 mg minocycline, bid for 15 days; conditions: human, in vivo
[3] = AUC (0 to 24 hrs) in HIV-infected patient at 300 mg, qd co-administered with 100 mg minocycline, bid for 15 days; design: dose 300 mg, time < 24 hr; conditions: human, plasma
[4] = AUC (0 to 24 hrs) in HIV-infected patient at 300 mg, qd co-administered with 100 mg minocycline and 250 mg valporic acid, bid for 15 days; design: time < 24 hr, dose 300 mg; conditions: human, plasma
[5] = AUC (0 to 24 hrs) in HIV-infected patient at 300 mg, qd; design: time < 24 hr, dose 300 mg; conditions: human, plasma
[6] = Cmax in HIV-infected patient at 300 mg, qd co-administered with 100 mg minocycline and 250 mg valporic acid, bid for 15 days; design: dose 300 mg; conditions: human, in vivo
[7] = Half life in HIV-infected patient at 300 mg, qd co-administered with 100 mg minocycline and 250 mg valporic acid, bid for 15 days; conditions: human, in vivo
[8] = Cmax in HIV-infected patient at 300 mg, qd co-administered with 100 mg minocycline, bid for 15 days; design: dose 300 mg; conditions: human, in vivo
[9] = Cmax in HIV-infected patient at 300 mg, qd; design: dose 300 mg; conditions: human, in vivo
[10] = Half life in HIV-infected patient at 100 mg, qd co-administered with 100 mg minocycline, bid for 15 days; conditions: human, in vivo
[11] = Half life in HIV-infected patient at 100 mg, qd co-administered with 100 mg minocycline and 250 mg valporic acid, bid for 15 days; conditions: human, in vivo
[12] = AUC (0 to 24 hrs) in HIV-infected patient at 100 mg, qd; design: dose 100 mg, time < 24 hr; conditions: human, plasma
[13] = Cmax in HIV-infected patient at 100 mg, qd co-administered with 100 mg minocycline and 250 mg valporic acid, bid for 15 days; design: dose 100 mg; conditions: human, in vivo
[14] = AUC (0 to 24 hrs) in HIV-infected patient at 100 mg, qd co-administered with 100 mg minocycline and 250 mg valporic acid, bid for 15 days; design: dose 100 mg, time < 24 hr; conditions: human, plasma
[15] = Cmax in HIV-infected patient at 100 mg, qd co-administered with 100 mg minocycline, bid for 15 days; design: dose 100 mg; conditions: human, in vivo
[16] = AUC (0 to 24 hrs) in HIV-infected patient at 100 mg, qd co-administered with 100 mg minocycline, bid for 15 days; design: time < 24 hr, dose 100 mg; conditions: human, plasma
[17] = Cmax in HIV-infected patient at 100 mg, qd; design: dose 100 mg; conditions: human, in vivo
[18] = Half life in HIV-infected patient at 100 mg, qd; conditions: human, in vivo

Row | half-life [1] [h] | half-life [2] [h] | AUC at 24 h [3] [ng·h/mL] | AUC at 24 h [4] [ng·h/mL] | AUC at 24 h [5] [ng·h/mL] | Cmax [6] [ng/mL] | half-life [7] [h] | Cmax [8] [ng/mL] | Cmax [9] [ng/mL] | half-life [10] [h] | half-life [11] [h] | AUC at 24 h [12] [ng·h/mL] | Cmax [13] [ng/mL] | AUC at 24 h [14] [ng·h/mL] | Cmax [15] [ng/mL] | AUC at 24 h [16] [ng·h/mL] | Cmax [17] [ng/mL] | half-life [18] [h] | Structure (SMILES)
1 | 11 | 7.93 | 33100 | 33500 | 53500 | 2600 | 10.4 | 3400 | 5130 | – | – | – | – | – | – | – | – | – | COC(=O)N[C@H](C(=O)N[C@@H](Cc1ccccc1)[C@@H](O)CN(Cc1ccc(-c2ccccn2)cc1)NC(=O)[C@@H](NC(=O)OC)C(C)(C)C)C(C)(C)C [ATAZANAVIR]
2 | – | – | – | – | – | – | – | – | – | 6.64 | 4.4 | 9600 | 884 | 7270 | 990 | 8190 | 957 | 5.4 | CC(C)c1nc(CN(C)C(=O)N[C@H](C(=O)N[C@@H](Cc2ccccc2)C[C@H](O)[C@H](Cc2ccccc2)NC(=O)OCc2cncs2)C(C)C)cs1 [RITONAVIR]
